The structures appear in SMILES notation.

A short description of the data set: Human HepG2 cell viability assay in 384 well format. As to conditions: HepG2 cells, read-out: Inhibition. The format is toxicity, cell-based. On the set-up: dose 125 nL, time 70.5 hour; concentration not given beside the values.

On to `O=C(c1ccc(C(F)(F)F)cc1)C1CCCN(C(=O)Cn2cnnn2)C1` (stereo unspecified), for which the cytotoxicity at 70.5 h was -15.3%.

Turning to `CC(C)N(Cc1c[nH]nc1-c1ccc2c(c1)OCO2)Cc1nccn1C`, the cytotoxicity at 70.5 h is -4.64%. The same measure for `Cc1cc(N2CCC3(CCCN(CCO)C3=O)C2)nc2ccccc12` (stereo unspecified): -26.3%. With `Cc1cc(CN2CCC=C(CN(C)C(=O)c3ccco3)C2)no1`, the cytotoxicity at 70.5 h was -7.11%. The value for `O=C(Cc1ccsc1)N1CCN(CCOc2ccccc2)CC1` was -5.67%.

Regarding `CCc1ccc(CN2CCN(c3cccc(OC)c3)C(=O)C2)nc1`, the cytotoxicity at 70.5 h is -8.23%. The same measure for `CCN(CC)C(=O)Cn1cc(C(=O)NCCc2nc(C)c(C)s2)nn1`: -2.44%; for `CN1CCN([C@H]2CCN(C(=O)c3nn(C)cc3Cl)C[C@H]2CCCO)CC1`: -10.4%. The value for `COC(=O)C1C=CCN1C(=O)c1cc(COc2ccccc2)[nH]n1` (stereo unspecified) was -5.33%; that for `CCOC(=O)N1CCC2(CC1)N=C(CCC(C)C)NC2=O` was -1.58%. The value for `CC(C)n1cnnc1CN(C)C1CCCNC1` (stereo unspecified) was -10.1%; that for `Cc1ccsc1C(Cn1ccnc1-c1ccccc1C(=O)O)N(C)C` (stereo unspecified) was 19.1%. Consider `OCCC1CN(c2nc(-c3cccnc3)nc3c2CCNCC3)CCO1` (stereo unspecified), for which the cytotoxicity at 70.5 h is -1.49%. The value for `Cc1ccc2nc(CN3CCN(C4CCCCC4)C(=O)C3)cc(O)c2c1` was -0.969%; that for `CC(C)c1nccc(-c2nccn2CCN(C)S(C)(=O)=O)n1` was 19%; that for `Cc1nc(C(C)C)sc1C(=O)N1CCN(C2CN3CCC2CC3)CC1` (stereo unspecified) was -6.54%. The same measure for `CNC(=O)c1cn2cc(-c3ccccc3Cl)n(CC3CC3)c(=O)c2n1`: 15.9%. The value for `Cc1ccsc1CN(C)c1cc(N2CCOCC2)ncn1` was -2.06%; that for `Cc1cc(N2CCC3(CCC(=O)N(CC4CC4)C3)CC2)ncn1` was -7.85%; that for `CC(C)c1cc(C(=O)N2CCNCC2C(=O)NCc2ccncc2)on1` (stereo unspecified) was -2.19%.

`CN1CCC(N2CCC(c3ccccc3C(=O)O)C2)CC1` (stereo unspecified): the cytotoxicity at 70.5 h was -0.525%.

`CCN1CCCC(C)(C(=O)NCc2nccn2Cc2ccccc2)C1` (stereo unspecified): the cytotoxicity at 70.5 h was 0.597%. The value for `O=C(Nc1nc(-c2ccccc2)ns1)N1CCN(C(=O)C2CC2)CC1` was -0.566%; that for `C=C(C)COc1ccccc1C(=O)NCc1nc(C)cc(=O)[nH]1` was -11.2%; that for `COc1ccc(OC)c(-c2nc(CN(C)Cc3nonc3C)c(C)o2)c1` was 26.4%.

With `O=C(CCN1CCCC(CO)(CC2CC2)C1)NC1CCCCC1` (stereo unspecified), the cytotoxicity at 70.5 h is -25.2%.

With `CC(=O)N1CCCn2nc(CNS(=O)(=O)N(C)C(C)C)cc2C1`, the cytotoxicity at 70.5 h is -14.6%. As for `CCOCc1nc2c(c(NC(CC)c3ccncc3)n1)CCNCC2` (stereo unspecified), the cytotoxicity at 70.5 h is 1.72%. The value for `Cc1ccccc1[C@@H]1CN(CCCS(=O)(=O)N(C)C)C[C@H]1C(=O)O` was 7.05%; that for `CN(C)CCCn1ccnc1C1CCCN(c2ncc(Cl)cc2F)C1` (stereo unspecified) was -2.12%; that for `Cn1ncc2c(N[C@@H]3C[C@@H]4CC[C@H]3C4)nc(-c3ccncc3)nc21` was -2.05%. The same measure for `c1cnnc(-c2noc(COCC3CCCO3)n2)c1` (stereo unspecified): -3.34%; for `CC1(CNS(=O)(=O)c2cccc(C(=O)N3CCSCC3)c2)COC1`: -6.9%; for `Cc1nc(CC(=O)NCc2csc(N3CCCC3)n2)cs1`: -4.47%. The same measure for `CSc1ccc(CN2CCC(CCC(=O)Nc3ccccc3)CC2)cc1`: 8.45%; for `Cc1cc(C2CCC2)nc(N2CC(n3cccn3)C2)n1`: -4.39%; for `Cc1nc2ccc(CN3CC4(CCOC4)CCC3=O)cc2[nH]1` (stereo unspecified): -1.05%.

Consider `CCC[C@@H]1CN(Cc2nnc(-c3cccc(F)c3)o2)C[C@H]1NC(C)=O`, for which the cytotoxicity at 70.5 h is -15.2%.

On to `O=C(c1ncc[nH]1)N1CCC(Cn2cc(-c3cccc(Cl)c3)nn2)CC1`, for which the cytotoxicity at 70.5 h came out at 20.7%. The value for `CCCn1ccnc1CN1CCc2[nH]cnc2C1Cc1ccccc1` (stereo unspecified) was -4.4%. For `N[C@@H]1c2ccccc2C2(CCN(c3cnc4ccccc4n3)CC2)[C@H]1O`, the cytotoxicity at 70.5 h is -9.08%. The same measure for `CC(C)=CCN1C(=O)[C@H]2CC[C@@H]1CN(c1ncccc1C(N)=O)C2`: -9.49%. The value for `CC(C)(CN1CCC2(CCOCC2)CC1)N1CCOCC1` was 9.42%; that for `CCc1nc(N)nc(N2CCCC3(CN(C)C(=O)O3)C2)c1C` (stereo unspecified) was -10.4%; that for `CCc1cc(N2C[C@H](C3CC3)[C@@H](N)C2)nc(N2CCOCC2)n1` was -5.91%.

For the compound `c1ccc2c(c1)CC(Cc1cc(N3CCCC3)cnn1)CO2` (stereo unspecified), the cytotoxicity at 70.5 h is -7.55%. The value for `O=c1[nH]c(-c2ccccn2)nc2c1CCN(S(=O)(=O)N1CCCC1)C2` was -3.27%; that for `CN(C)C(=O)N1CC[C@@H](c2ccc3ccccc3c2)[C@H](O)C1` was 6.36%; that for `CN1CC2(CCN(C(=O)c3cn4cccnc4n3)CC2)CC1=O` was 39.7%. The same measure for `CCN1CC2(CCC1=O)CCN(C(=O)c1cn3cccnc3n1)CC2`: 34.9%. As to `CCn1c(C2CCCN(C(=O)c3ccc[nH]3)C2)nn(CCN(C)C)c1=O` (stereo unspecified), the cytotoxicity at 70.5 h amounted to 4.96%. As for `O=C(NCC(F)(F)F)C(c1cccnc1)N1CCCC1` (stereo unspecified), the cytotoxicity at 70.5 h was -5.02%. Regarding `CCCC(=O)Nc1ccc(CC(=O)N(CC)CC2CCCCO2)cc1` (stereo unspecified), the cytotoxicity at 70.5 h came out at 8.7%. Turning to `Cc1ccc(NCCCNC(=O)C2CCCN(Cc3ccco3)C2)nc1` (stereo unspecified), the cytotoxicity at 70.5 h is 7.19%. The value for `Cc1nc2c(c(N3CCC(O)(CN4CCCC4)CC3)n1)CCNCC2` was -3.88%; that for `CC1(C)CNC(=O)c2nc(-c3nnc(-c4ccccc4)[nH]3)[nH]c2C1` was 0.339%. As for `COc1ccc(C(CC(=O)NCc2n[nH]c(N)n2)c2ccccc2)cc1` (stereo unspecified), the cytotoxicity at 70.5 h is -4.65%. `CCc1csc(CCNC(=O)CC2CCN(C(C)C)CC2)n1`: the cytotoxicity at 70.5 h was found to be 23%. The value for `CCn1c(CN(C)C)nnc1C1CCN(Cc2ccc(Cl)c(F)c2)CC1` was -6.05%; that for `CN1CCC(Cc2noc(-c3cccc(OCC(N)=O)c3)n2)CC1` was 7.49%; that for `CNc1nc(N2CCN(Cc3ccsc3)C(CCO)C2)nc2c1CCC2` (stereo unspecified) was -1.63%. The value for `CC(=O)N[C@H]1CN(S(=O)(=O)N(C)Cc2ccccc2)C[C@@H]1C1CC1` was -2.36%; that for `CCn1cc(S(=O)(=O)NC2CCCN(CC3CCCCC3)C2)cn1` (stereo unspecified) was 15.9%; that for `Cc1cc(C)n(C2CN(c3nc(N)nc4c3CCCC4)C2)n1` was -16.5%. The same measure for `c1ccc(CN2CCC(Nc3ncnc4c3CCNCC4)C2)cc1` (stereo unspecified): -4.37%. Turning to `COc1ccc(-c2ccc(C(=O)N3CCC[C@@H]3CO)o2)cc1`, the cytotoxicity at 70.5 h was -13.9%. The value for `Cc1ccc(-n2c(COC(C)C)n[nH]c2=O)cc1` was -2.37%. The same measure for `Fc1ccccc1Cc1noc(CN2CCC(C3CCCCC3)C2)n1` (stereo unspecified): 34.7%; for `CCOc1ccc(CN2CCN(CCOC)[C@@H]3CS(=O)(=O)C[C@@H]32)cc1`: 5.04%; for `CC(C)(C)c1nc(CN2CCc3onc(-c4cccc(F)c4)c3C2)no1`: -12.1%. Take `Cc1cc(NC(=O)Cn2ccc(-c3ccc4c(c3)OCO4)n2)n(C)n1`: the cytotoxicity at 70.5 h was -13.2%.

In the case of `COc1cc(F)c(C(=O)NCc2cc(C)on2)c(F)c1`, the cytotoxicity at 70.5 h was -6.54%. Take `O=C(CCc1cc2n(n1)CCCNC2)N1CCSCC1`: the cytotoxicity at 70.5 h was -9.8%.

With `CC(C)c1nc(N2CCC(N3CCCC(O)C3)CC2)c2cnn(C)c2n1` (stereo unspecified), the cytotoxicity at 70.5 h worked out at 1.93%. The value for `CC(C)c1nc(N2CCC(N3CCSCC3)CC2)c2cnn(C)c2n1` was -2.43%; that for `CSCCC1c2nc[nH]c2CCN1Cc1ccccc1C#N` (stereo unspecified) was -6.75%. As for `Nc1ccncc1-n1cc(CCO)cn1`, the cytotoxicity at 70.5 h was determined as 1.11%.

As for `CCNC(=O)C1CCN(Cc2ccc(C(=O)Nc3nnc(C)s3)cc2)C1` (stereo unspecified), the cytotoxicity at 70.5 h was determined as 26.3%.

Turning to `CNc1nc(C(=O)N2CCn3nc(C(=O)OC)cc3C2)cs1`, the cytotoxicity at 70.5 h was -4.4%. The value for `Cc1nc(CCN)cc(N(C)Cc2nc3ccc(F)cc3[nH]2)n1` was 0.172%.

Take `COCc1cc(N2CCN(c3ccc(Cl)cn3)CC2)n2nccc2n1`: the cytotoxicity at 70.5 h is -0.783%. With `O=C1OCCN1CC(=O)N1C[C@H]2CC[C@@H]1CN(C(=O)c1ccccn1)C2`, the cytotoxicity at 70.5 h was -7.06%. The value for `Cc1nc2c(c(N3CCCC(CO)C3)n1)CCN(Cc1ccco1)CC2` (stereo unspecified) was 16.9%. The value for `CSc1cccc(CN(C)C(=O)Cn2ncc(N(C)C)cc2=O)c1` was -3.4%. In the case of `COCCC1(CO)CCCN(C(=O)c2cc(=O)[nH]c(=O)[nH]2)C1` (stereo unspecified), the cytotoxicity at 70.5 h was -8.57%. In the case of `O=C(O)[C@]12CN(CC3CCC3)C[C@H]1CN(c1cnccn1)C2`, the cytotoxicity at 70.5 h was -4.33%.

Turning to `Cc1cc2occ(CC(=O)N3CCC(O)(CN(C)C)C3)c2cc1Cl` (stereo unspecified), the cytotoxicity at 70.5 h was -5.39%. The value for `C[C@@H]1CN(CCC(=O)NCc2ccccc2Cl)C[C@@]1(O)C1CC1` was -2.59%; that for `COc1ccc(Cn2cc(C(=O)N(C)CCN(C)C)nn2)cc1` was -15%; that for `Cc1c(Cl)cc(C(=O)NCCc2ncnn2C)cc1Cl` was -9.97%. With `Cc1cc(C)c(C(=O)N2CCC3(CCCN(CC(C)(C)C)C3)C2)[nH]1` (stereo unspecified), the cytotoxicity at 70.5 h worked out at 15.2%. The same measure for `CN(C)C(=O)CN1C[C@@H]2CC[C@H](C1)N(C/C=C/c1ccc(F)cc1)C2`: -0.0436%; for `Cc1ccc(-c2cccc(N3CCC(NC4CCOCC4)CC3)c2)cc1`: -2.04%; for `N[C@H]1CCCN(S(=O)(=O)c2ccc(C(=O)NCC(F)F)cc2)C1`: 25.2%. Turning to `Cc1c[nH]c(C(=O)N2CCn3nc(C(=O)NC4CC4)cc3C2)n1`, the cytotoxicity at 70.5 h was 24.5%. The value for `CNC(=O)c1ccc(CN(C(C)C)C(C)C)o1` was -4.83%.

These data come from ChEMBL document CHEMBL3507680, “University of Dundee, Gates Library screen for HepG2 cell viability”.
